The text below walks through data of paper PMC6690934, “High-density immobilization of a ginsenoside-transforming β-glucosidase for enhanced food-grade production of minor ginsenosides” (Applied Microbiology and Biotechnology, 2019).

For the experiment, the target named is T1, MT619 (Microbacterium testaceum, UniProt E8N6P7).
T1 construct: gene MTES_2447; codon-optimized synthetic gene (MK575514); E. coli BL21; purified by Ni and DEAE columns
T1 sequence (E8N6P7 1-619): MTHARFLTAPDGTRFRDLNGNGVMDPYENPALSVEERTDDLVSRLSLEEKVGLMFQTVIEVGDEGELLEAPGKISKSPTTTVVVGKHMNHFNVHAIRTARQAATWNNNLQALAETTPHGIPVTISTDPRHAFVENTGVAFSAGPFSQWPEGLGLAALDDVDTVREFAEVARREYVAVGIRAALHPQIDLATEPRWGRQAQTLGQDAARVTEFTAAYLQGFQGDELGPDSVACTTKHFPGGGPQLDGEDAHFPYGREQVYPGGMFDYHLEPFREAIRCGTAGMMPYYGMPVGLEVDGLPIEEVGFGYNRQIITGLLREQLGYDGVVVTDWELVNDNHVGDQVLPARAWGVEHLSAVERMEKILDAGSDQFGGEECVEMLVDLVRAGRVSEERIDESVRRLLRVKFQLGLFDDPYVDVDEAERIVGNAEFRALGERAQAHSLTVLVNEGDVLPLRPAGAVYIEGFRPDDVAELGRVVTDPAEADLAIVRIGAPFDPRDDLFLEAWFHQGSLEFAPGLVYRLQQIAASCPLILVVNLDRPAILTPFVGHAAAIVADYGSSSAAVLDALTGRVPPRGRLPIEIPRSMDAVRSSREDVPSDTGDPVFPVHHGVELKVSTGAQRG
Kind of experiment: TLC of hydrolysis products. The settings on record: pH 7.0, 37 °C, 2.0 mg/mL substrate, 0.1 mg/mL enzyme. The format is biochemical.

Consider `CC(C)=CCC[C@](C)(O[C@@H]1O[C@H](CO[C@@H]2O[C@H](CO)[C@@H](O)[C@H](O)[C@H]2O)[C@@H](O)[C@H](O)[C@H]1O)[C@H]1CC[C@]2(C)[C@@H]1[C@H](O)C[C@@H]1[C@@]3(C)CC[C@H](O[C@@H]4O[C@H](CO)[C@@H](O)[C@H](O)[C@H]4O[C@@H]4O[C@H](CO)[C@@H](O)[C@H](O)[C@H]4O)C(C)(C)[C@@H]3CC[C@]12C` [Rb1], for which the “TLC of hydrolysis products” value was “MT619 could clearly transform four major ginsenosides (Re, Rg1, Rb1, and Rd)”.
